Test results: patent US20220356174A1, “PYRIDIN-2-ONE COMPOUNDS USEFUL AS SMARCA2 ANTAGONISTS” (Epizyme, Inc., priority 2018, published 2022)
Where two headings read alike, the source gives them in different places.

Tests used:
[1] = biological target: T1, FL-SMARCA2 (full-length human SMARCA2 isoform 1) (Homo sapiens, UniProt P51531); assay: SMARCA2 ATPase activity assay (ADP-Glo, chicken mononucleosome substrate); assay type: biochemical; details: ATP 250 uM
T1 construct: FLAG tag (YKDDDDK) (C); made in house; host or cells: Sf21 insect cells (baculovirus, pFastBacI)
T1 sequence (P51531 with tags, fused parts or gaps): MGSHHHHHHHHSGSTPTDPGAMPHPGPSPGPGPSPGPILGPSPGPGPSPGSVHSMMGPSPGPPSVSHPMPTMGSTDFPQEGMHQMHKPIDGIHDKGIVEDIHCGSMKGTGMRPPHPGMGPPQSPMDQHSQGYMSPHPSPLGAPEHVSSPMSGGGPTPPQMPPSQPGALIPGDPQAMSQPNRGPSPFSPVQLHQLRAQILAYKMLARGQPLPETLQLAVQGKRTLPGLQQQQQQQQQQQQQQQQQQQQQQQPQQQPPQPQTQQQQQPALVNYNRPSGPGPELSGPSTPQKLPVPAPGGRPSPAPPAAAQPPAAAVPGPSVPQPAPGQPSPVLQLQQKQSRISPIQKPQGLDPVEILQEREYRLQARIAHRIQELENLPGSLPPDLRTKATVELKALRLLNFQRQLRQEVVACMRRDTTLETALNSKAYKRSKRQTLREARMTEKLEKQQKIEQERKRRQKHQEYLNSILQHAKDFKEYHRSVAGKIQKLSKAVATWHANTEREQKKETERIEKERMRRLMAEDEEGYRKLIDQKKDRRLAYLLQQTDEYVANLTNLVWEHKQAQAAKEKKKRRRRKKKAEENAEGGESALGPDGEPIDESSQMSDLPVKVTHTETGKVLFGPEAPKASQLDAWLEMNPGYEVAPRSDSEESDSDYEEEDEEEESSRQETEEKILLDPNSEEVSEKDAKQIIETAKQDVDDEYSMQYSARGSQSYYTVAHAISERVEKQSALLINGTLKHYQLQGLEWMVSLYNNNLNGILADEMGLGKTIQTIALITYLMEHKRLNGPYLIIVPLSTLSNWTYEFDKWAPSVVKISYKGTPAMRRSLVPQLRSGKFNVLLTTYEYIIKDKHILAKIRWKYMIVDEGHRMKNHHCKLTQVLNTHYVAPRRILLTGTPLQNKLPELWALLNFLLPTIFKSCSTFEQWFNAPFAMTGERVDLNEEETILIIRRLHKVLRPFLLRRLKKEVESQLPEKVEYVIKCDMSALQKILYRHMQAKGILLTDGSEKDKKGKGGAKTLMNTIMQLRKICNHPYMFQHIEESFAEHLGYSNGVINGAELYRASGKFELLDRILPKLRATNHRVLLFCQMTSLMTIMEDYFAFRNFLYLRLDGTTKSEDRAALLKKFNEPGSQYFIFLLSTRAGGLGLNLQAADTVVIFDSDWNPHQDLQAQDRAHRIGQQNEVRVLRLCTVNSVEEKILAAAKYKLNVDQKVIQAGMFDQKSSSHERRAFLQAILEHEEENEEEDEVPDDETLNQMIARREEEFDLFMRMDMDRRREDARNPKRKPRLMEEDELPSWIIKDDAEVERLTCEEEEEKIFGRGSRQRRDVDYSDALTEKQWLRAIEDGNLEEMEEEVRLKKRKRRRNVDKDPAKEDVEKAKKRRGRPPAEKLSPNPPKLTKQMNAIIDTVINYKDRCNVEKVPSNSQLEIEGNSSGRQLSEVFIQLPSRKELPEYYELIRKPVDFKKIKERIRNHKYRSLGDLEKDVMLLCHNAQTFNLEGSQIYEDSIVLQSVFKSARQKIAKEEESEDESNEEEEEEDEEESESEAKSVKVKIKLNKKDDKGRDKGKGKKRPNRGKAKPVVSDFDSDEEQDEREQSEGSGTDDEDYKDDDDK

FL-SMARCA4 = FL-SMARCA4 (Homo sapiens, UniProt P51532); assay: SMARCA4 ATPase activity assay (ADP-Glo, chicken mononucleosome substrate)
Chain of FL-SMARCA4 (P51532 whole entry): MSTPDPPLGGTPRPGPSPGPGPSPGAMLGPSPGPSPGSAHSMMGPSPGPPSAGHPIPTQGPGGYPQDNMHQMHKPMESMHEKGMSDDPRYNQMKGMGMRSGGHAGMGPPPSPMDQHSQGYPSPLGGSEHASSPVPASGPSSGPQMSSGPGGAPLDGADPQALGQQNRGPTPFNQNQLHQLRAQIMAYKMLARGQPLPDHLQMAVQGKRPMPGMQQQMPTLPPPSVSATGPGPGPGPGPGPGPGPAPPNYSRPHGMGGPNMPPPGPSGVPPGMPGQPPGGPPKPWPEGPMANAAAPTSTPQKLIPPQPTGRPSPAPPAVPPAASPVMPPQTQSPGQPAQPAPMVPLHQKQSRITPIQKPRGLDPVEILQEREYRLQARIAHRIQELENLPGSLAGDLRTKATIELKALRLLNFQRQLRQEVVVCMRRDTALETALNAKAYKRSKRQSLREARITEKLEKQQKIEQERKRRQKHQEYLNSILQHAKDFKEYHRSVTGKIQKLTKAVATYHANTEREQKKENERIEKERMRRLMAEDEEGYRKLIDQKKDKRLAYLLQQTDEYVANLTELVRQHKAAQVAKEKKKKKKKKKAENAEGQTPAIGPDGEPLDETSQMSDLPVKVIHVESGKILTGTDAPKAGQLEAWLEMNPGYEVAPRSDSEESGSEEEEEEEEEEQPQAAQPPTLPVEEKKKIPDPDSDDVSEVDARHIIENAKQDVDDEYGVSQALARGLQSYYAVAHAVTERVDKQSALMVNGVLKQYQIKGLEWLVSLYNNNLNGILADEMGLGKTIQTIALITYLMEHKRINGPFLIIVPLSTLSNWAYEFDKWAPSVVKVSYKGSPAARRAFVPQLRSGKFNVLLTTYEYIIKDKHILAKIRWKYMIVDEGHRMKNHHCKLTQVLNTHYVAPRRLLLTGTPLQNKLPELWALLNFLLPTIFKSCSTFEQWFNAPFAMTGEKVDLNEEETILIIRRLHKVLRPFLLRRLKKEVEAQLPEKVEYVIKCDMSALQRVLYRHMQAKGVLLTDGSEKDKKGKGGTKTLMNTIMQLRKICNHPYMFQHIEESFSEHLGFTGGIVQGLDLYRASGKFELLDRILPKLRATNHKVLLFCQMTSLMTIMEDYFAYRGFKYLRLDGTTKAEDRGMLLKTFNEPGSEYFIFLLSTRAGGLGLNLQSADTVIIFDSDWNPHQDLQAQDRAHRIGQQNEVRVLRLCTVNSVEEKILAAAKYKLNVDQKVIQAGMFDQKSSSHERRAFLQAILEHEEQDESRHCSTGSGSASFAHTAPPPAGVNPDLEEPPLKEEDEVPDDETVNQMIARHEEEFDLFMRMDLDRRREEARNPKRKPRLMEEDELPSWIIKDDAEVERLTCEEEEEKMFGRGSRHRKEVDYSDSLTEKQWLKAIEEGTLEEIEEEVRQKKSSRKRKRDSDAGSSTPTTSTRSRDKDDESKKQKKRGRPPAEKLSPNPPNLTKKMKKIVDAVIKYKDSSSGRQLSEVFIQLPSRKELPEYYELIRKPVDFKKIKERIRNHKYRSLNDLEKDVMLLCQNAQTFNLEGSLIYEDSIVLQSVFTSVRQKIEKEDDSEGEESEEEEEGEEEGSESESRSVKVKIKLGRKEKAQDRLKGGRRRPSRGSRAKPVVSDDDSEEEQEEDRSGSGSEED

[2] = Table 3.1, ATPase assay, enzyme 5 nM, chicken mononucleosome 10 nM, 30 min preincubation
[3] = FL-SMARCA4 IC50, Table 3.2, ATPase assay, enzyme 5 nM, ATP 250 uM, chicken mononucleosome 10 nM, 30 min preincubation
[4] = Table 3a.1, SMARCA2 5 nM, mononucleosome 10 nM
[5] = FL-SMARCA4 IC50, Table 3a.2, SMARCA4 5 nM, ATP 250 uM, mononucleosome 10 nM
[6] = Table 3c.1, ATPase assay, enzyme 5 nM, chicken mononucleosome 10 nM, 30 min preincubation
[7] = FL-SMARCA4 IC>50, Table 3c.2, ATPase assay, enzyme 5 nM, ATP 250 uM, chicken mononucleosome 10 nM, 30 min preincubation
[8] = Table 3d.1, ATPase assay, enzyme 5 nM, chicken mononucleosome 10 nM, 30 min preincubation, read-out: FL-SMARCA2 IC>50

Row | Structure (SMILES) | IC50 [1, 2] [µM] | IC50 (FL-SMARCA4; [3]) [µM] | also measured
1 | CCn1cc(NC(=O)c2ncc(Cl)s2)ccc1=O [Compound 56] | > 50 | > 50 | –
2 | O=C(Nc1ccc(=O)n(CC(F)(F)F)c1)c1nc2cc(F)c(Cl)cc2[nH]1 [Compound 41a] | – | – | IC50 [1, 4]: > 50 µM; IC50 (FL-SMARCA4; [5]): > 50 µM
3 | CCn1cc(NC(=O)c2ccc(Cl)c(Cl)n2)ccc1=O [Compound 33a] | – | – | IC50 [1, 4]: > 50 µM; IC50 (FL-SMARCA4; [5]): > 50 µM
4 | CS(=O)(=O)c1cc(C(=O)Nc2cc(F)c(=O)n(CCF)c2)sc1Cl [Compound 307] | 0.94 | 3.27 | –
5 | N#Cc1[nH]c(C(=O)Nc2cc(Cl)c(=O)n(CCF)c2)cc1Cl [Compound 241] | 0.112 | 0.653 | –
6 | O=C(Nc1cc(F)c(=O)n(CC(F)(F)F)c1)c1cc(Cl)c(Cl)o1 [Compound 255] | 16.7 | > 50 | –
7 | CN(C)CCc1cc(NC(=O)c2cc(F)c(Cl)s2)cn(CC(F)F)c1=O [Compound 17c] | – | – | IC50 [1, 6]: > 50 µM; IC50 (FL-SMARCA4; [7]): > 50 µM
8 | Cn1cc(NC(=O)c2coc(Br)c2)cc(Cl)c1=O [Compound 2] | 33.2 | > 50 | –
9 | CCc1cc(=O)n(CC)cc1NC(=O)c1cc(Cl)c(Cl)s1 [Compound 28d] | – | – | IC50 [1, 8]: > 50 µM; IC50 (FL-SMARCA4; FL-SMARCA4 IC50): > 50 µM
10 | CCn1cc(NC(=O)c2cc(Cl)c(Cl)s2)cc(C#N)c1=O [Compound 123] | 1.2 | 11.6 | –
11 | CCn1cc(NC(=O)c2cc(-c3ccn(C)n3)c(Cl)s2)ccc1=O [Compound 272] | > 50 | > 50 | –
12 | Cn1c(C(=O)Nc2cc(C#N)c(=O)n(CCF)c2)cc(Cl)c1C#N [Compound 204] | 1.26 | 5.78 | –
13 | O=C(Nc1ccc(=O)n(CC(F)(F)F)c1)c1cc(Cl)c(Cl)[nH]1 [Compound 166] | 2.72 | 16.6 | –
14 | CCn1nc(NC(=O)c2cc(Cl)c(Cl)s2)ccc1=O [Compound 19d] | – | – | IC50 [1, 8]: > 50 µM; IC50 (FL-SMARCA4; FL-SMARCA4 IC50): > 50 µM
15 | CCn1cc(NC(=O)c2cc(Cl)cs2)ccc1=O [Compound 44] | > 50 | > 50 | –
16 | Cn1c(C(=O)Nc2cc(F)c(=O)n(CCF)c2)cc(Cl)c1Cl [Compound 153] | 0.147 | 0.715 | –
17 | CCn1cc(NC(=O)c2cc(Cl)c(Cl)n2-c2ccccc2)ccc1=O [Compound 66] | > 50 | > 50 | –

Row | Structure (SMILES) | IC50 [1, 2] [µM] | IC50 (FL-SMARCA4; [3]) [µM] | also measured
18 | CCn1cc(NC(=O)c2cc(OC)c(OC)s2)ccc1=O [Compound 171] | > 50 | > 50 | –
19 | CCn1cc(NC(=O)CC2CCOCC2)ccc1=O [Compound 9d] | – | – | IC50 [1, 8]: > 50 µM; IC50 (FL-SMARCA4; FL-SMARCA4 IC50): > 50 µM
20 | O=C(Nc1cc(F)c(=O)n(CCF)c1)c1cc(CO)c(Cl)s1 [Compound 308] | 23.3 | > 50 | –
21 | CCn1cc(NC(=O)c2cnc3c(Cl)cccn23)ccc1=O [Compound 29a] | – | – | IC50 [1, 4]: > 50 µM; IC50 (FL-SMARCA4; [5]): > 50 µM
22 | O=C(Nc1cc(F)c(=O)n(CCF)c1)c1ccc(Cl)cn1 [Compound 56a] | – | – | IC50 [1, 4]: > 50 µM; IC50 (FL-SMARCA4; [5]): > 50 µM
23 | CCn1cc(NC(=O)c2cc(I)cn2C)ccc1=O [Compound 51] | 46.4 | > 50 | –
24 | O=C(Nc1cc(F)c(=O)n(CC(F)F)c1)c1cc(C2COC2)c(Cl)s1 [Compound 49c] | – | – | IC50 [1, 6]: 16.8 µM; IC50 (FL-SMARCA4; [7]): 16.8 µM
25 | CN(C)CC#Cc1cc(NC(=O)c2cc(F)c(Cl)s2)cn(CC(F)F)c1=O [Compound 45d] | – | – | IC50 [1, 8]: > 50 µM; IC50 (FL-SMARCA4; FL-SMARCA4 IC50): > 50 µM
26 | CCn1cc(NC(=O)c2cc(C#Cc3cccnc3)c(Cl)s2)ccc1=O [Compound 287] | 1.28 | 3.66 | –
27 | O=C(Nc1cc(F)c(=O)n(CCF)c1)c1ccc(-c2nccs2)s1 [Compound 317] | > 50 | > 50 | –
28 | O=C(Nc1cc(-c2c[nH]cn2)c(=O)n(CC(F)F)c1)c1sc(C(F)(F)F)cc1Cl [Compound 31c] | – | – | IC50 [1, 6]: > 50 µM; IC50 (FL-SMARCA4; [7]): > 50 µM
29 | CCn1cc(NC(=O)c2cc(C#CCO)c(Cl)s2)ccc1=O [Compound 300] | 2.74 | 5.96 | –
30 | CCn1cc(NC(=O)c2ccccn2)ccc1=O [Compound 30a] | – | – | IC50 [1, 4]: > 50 µM; IC50 (FL-SMARCA4; [5]): > 50 µM
31 | O=C(Nc1cc(-c2ncco2)c(=O)n(CC(F)F)c1)c1cc(Cl)c(C(F)(F)F)s1 [Compound 102c] | – | – | IC50 [1, 6]: > 50 µM; IC50 (FL-SMARCA4; [7]): > 50 µM
32 | CCn1cc(NC(=O)c2cc(CN(C)C)cs2)ccc1=O [Compound 98] | > 50 | > 50 | –
33 | CCn1cc(NC(=O)c2cc(C)c(Cl)s2)ccc1=O [Compound 65] | 28.4 | > 50 | –
34 | O=C(Nc1cc(F)c(=O)n(CC(F)F)c1)c1cc(C#Cc2cccc(CO)c2)c(Cl)s1 [Compound 138c] | – | – | IC50 [1, 6]: 0.0288 µM; IC50 (FL-SMARCA4; [7]): 0.0657 µM
